Data published in patent US8039483B2, “Quinuclidine carbonate salts and medicinal composition thereof” (Chiesi Farmaceutici S.p.A., priority 2008, dated 2011).

What was measured:
[1] = Plasma stability in human plasma; format: in vitro ADME; settings: 37° C.
Experimental: (§1) Briefly 10 μl of a stock solution 250 μM of compound 1 in acetonitrile were added to 1 ml of rat and human plasma, and samples were incubated at 37° C. Plasma (50 μL) was taken after 0, 1 and 5 hours of incubation and added to 140 μl of acetonitrile with addition of verapamil as internal standard (250 ng/ml). Samples were analysed by HPLC-MS/MS analysis.
(§2) Plasma stability was calculated as percentage remaining after 1 and 5 hours by dividing the peak area at 1 or 5 hours by the area of the peak at time 0. […] The other compounds of the invention behave similarly.

[2] = Plasma stability in rat plasma; format: in vitro ADME; settings: 37° C.
Experimental: as §1, §2

Measured: plasma stability, percentage remaining

O=C(OC(c1cccc(F)c1)c1cccc(F)c1)O[C@H]1C[N+]2(CC(=O)c3cccs3)CCC1CC2.[Cl-] [Compound 1, (R)-3-[Bis-(3-fluoro-phenyl)-methoxycarbonyloxy]-1-(2-oxo-2-thiophen-2-yl-ethyl)-1-azonia-bicyclo[2.2.2]octane; chloride]
less than 2%: [1]; after 1 hour of incubation | [1]; after 5 hours of incubation | [2]; after 1 hour of incubation | [2]; after 5 hours of incubation
